Laboratory results from the CheMixHub ionic liquid set.

Test: xn = mol fraction of the nth substance listed
Details: 100 kPa

CCCCCCCC[n+]1ccccc1.[Br-] + CC(C)C[C@H](NC(=O)CN)C(=O)O + O
Details | electrical conductivity [S/m]
288.15 K, x2 = 0.0008948, x1 = 0.005958 | 1.18
288.15 K, x2 = 0.0008949, x1 = 0.005845 | 1.16
288.15 K, x2 = 0.0008952, x1 = 0.005555 | 1.12
288.15 K, x2 = 0.0008955, x1 = 0.005223 | 1.08
288.15 K, x2 = 0.0008958, x1 = 0.004874 | 1.04
288.15 K, x2 = 0.0008961, x1 = 0.00451 | 0.998
288.15 K, x2 = 0.0008965, x1 = 0.00409 | 0.947
288.15 K, x2 = 0.0008969, x1 = 0.003625 | 0.867
288.15 K, x2 = 0.0008973, x1 = 0.003174 | 0.789
288.15 K, x2 = 0.0008978, x1 = 0.002616 | 0.679
288.15 K, x2 = 0.0008984, x1 = 0.002001 | 0.558
288.15 K, x2 = 0.0008987, x1 = 0.001608 | 0.469
288.15 K, x2 = 0.0008991, x1 = 0.001214 | 0.381
288.15 K, x2 = 0.0008996, x1 = 0.0007137 | 0.253
288.15 K, x2 = 0.001788, x1 = 0.005808 | 1.12
288.15 K, x2 = 0.001789, x1 = 0.005199 | 1.05
288.15 K, x2 = 0.001789, x1 = 0.005515 | 1.09
288.15 K, x2 = 0.00179, x1 = 0.004871 | 1.01
288.15 K, x2 = 0.001791, x1 = 0.00409 | 0.911
288.15 K, x2 = 0.001791, x1 = 0.004503 | 0.962
288.15 K, x2 = 0.001792, x1 = 0.003639 | 0.855
288.15 K, x2 = 0.001793, x1 = 0.003149 | 0.766
288.15 K, x2 = 0.001794, x1 = 0.002603 | 0.666
288.15 K, x2 = 0.001795, x1 = 0.002003 | 0.545
288.15 K, x2 = 0.001796, x1 = 0.001632 | 0.462
288.15 K, x2 = 0.001797, x1 = 0.0008258 | 0.273
288.15 K, x2 = 0.001797, x1 = 0.001246 | 0.37
293.15 K, x2 = 0.0008948, x1 = 0.005956 | 1.31
293.15 K, x2 = 0.0008949, x1 = 0.005843 | 1.3
293.15 K, x2 = 0.0008952, x1 = 0.005554 | 1.27
293.15 K, x2 = 0.0008955, x1 = 0.005223 | 1.22
293.15 K, x2 = 0.0008958, x1 = 0.004874 | 1.17
293.15 K, x2 = 0.0008961, x1 = 0.004508 | 1.12
293.15 K, x2 = 0.0008965, x1 = 0.004089 | 1.06
293.15 K, x2 = 0.0008969, x1 = 0.003623 | 0.983
293.15 K, x2 = 0.0008973, x1 = 0.003174 | 0.894
293.15 K, x2 = 0.0008978, x1 = 0.002616 | 0.781
293.15 K, x2 = 0.0008984, x1 = 0.002001 | 0.632
293.15 K, x2 = 0.0008987, x1 = 0.001608 | 0.526
293.15 K, x2 = 0.0008991, x1 = 0.001214 | 0.427
293.15 K, x2 = 0.0008996, x1 = 0.0007137 | 0.283
293.15 K, x2 = 0.001788, x1 = 0.005807 | 1.28
293.15 K, x2 = 0.001789, x1 = 0.005198 | 1.19
293.15 K, x2 = 0.001789, x1 = 0.005513 | 1.24
293.15 K, x2 = 0.00179, x1 = 0.004869 | 1.14
293.15 K, x2 = 0.001791, x1 = 0.00409 | 1.04
293.15 K, x2 = 0.001791, x1 = 0.004503 | 1.1
293.15 K, x2 = 0.001792, x1 = 0.003637 | 0.959
293.15 K, x2 = 0.001793, x1 = 0.003149 | 0.869
293.15 K, x2 = 0.001794, x1 = 0.002603 | 0.756
293.15 K, x2 = 0.001795, x1 = 0.002003 | 0.615
293.15 K, x2 = 0.001796, x1 = 0.001632 | 0.523
293.15 K, x2 = 0.001797, x1 = 0.0008258 | 0.306
293.15 K, x2 = 0.001797, x1 = 0.001246 | 0.419
298.15 K, x2 = 0.0008948, x1 = 0.005954 | 1.49
298.15 K, x2 = 0.0008949, x1 = 0.005843 | 1.48
298.15 K, x2 = 0.0008952, x1 = 0.005554 | 1.44
298.15 K, x2 = 0.0008955, x1 = 0.005221 | 1.38
298.15 K, x2 = 0.0008958, x1 = 0.004872 | 1.34
298.15 K, x2 = 0.0008961, x1 = 0.004508 | 1.29
298.15 K, x2 = 0.0008965, x1 = 0.004089 | 1.21
298.15 K, x2 = 0.0008969, x1 = 0.003623 | 1.12
298.15 K, x2 = 0.0008973, x1 = 0.003174 | 1.02
298.15 K, x2 = 0.0008978, x1 = 0.002616 | 0.883
298.15 K, x2 = 0.0008984, x1 = 0.002001 | 0.72
298.15 K, x2 = 0.0008987, x1 = 0.001608 | 0.604
298.15 K, x2 = 0.0008991, x1 = 0.001214 | 0.48
298.15 K, x2 = 0.0008996, x1 = 0.0007137 | 0.314
298.15 K, x2 = 0.001788, x1 = 0.005807 | 1.46
298.15 K, x2 = 0.001789, x1 = 0.005198 | 1.36
298.15 K, x2 = 0.001789, x1 = 0.005513 | 1.41
298.15 K, x2 = 0.00179, x1 = 0.004869 | 1.31
298.15 K, x2 = 0.001791, x1 = 0.004088 | 1.17
298.15 K, x2 = 0.001791, x1 = 0.004501 | 1.25
298.15 K, x2 = 0.001792, x1 = 0.003637 | 1.09
298.15 K, x2 = 0.001793, x1 = 0.003149 | 0.978
298.15 K, x2 = 0.001794, x1 = 0.002603 | 0.849
298.15 K, x2 = 0.001795, x1 = 0.002003 | 0.689
298.15 K, x2 = 0.001796, x1 = 0.001632 | 0.585
298.15 K, x2 = 0.001797, x1 = 0.0008258 | 0.341
298.15 K, x2 = 0.001797, x1 = 0.001246 | 0.469
303.15 K, x2 = 0.0008948, x1 = 0.005952 | 1.67
303.15 K, x2 = 0.0008949, x1 = 0.005839 | 1.65
303.15 K, x2 = 0.0008952, x1 = 0.00555 | 1.6
303.15 K, x2 = 0.0008955, x1 = 0.005219 | 1.54
303.15 K, x2 = 0.0008958, x1 = 0.00487 | 1.49
303.15 K, x2 = 0.0008961, x1 = 0.004507 | 1.43
303.15 K, x2 = 0.0008965, x1 = 0.004087 | 1.34
303.15 K, x2 = 0.0008969, x1 = 0.003621 | 1.24
303.15 K, x2 = 0.0008973, x1 = 0.003172 | 1.12
303.15 K, x2 = 0.0008978, x1 = 0.002616 | 0.97
303.15 K, x2 = 0.0008984, x1 = 0.001999 | 0.789
303.15 K, x2 = 0.0008987, x1 = 0.001608 | 0.66
303.15 K, x2 = 0.0008991, x1 = 0.001214 | 0.531
303.15 K, x2 = 0.0008996, x1 = 0.0007137 | 0.347
303.15 K, x2 = 0.001789, x1 = 0.005196 | 1.52
303.15 K, x2 = 0.001789, x1 = 0.005509 | 1.58
303.15 K, x2 = 0.00179, x1 = 0.004867 | 1.46
303.15 K, x2 = 0.001791, x1 = 0.004088 | 1.31
303.15 K, x2 = 0.001791, x1 = 0.004501 | 1.4
303.15 K, x2 = 0.001792, x1 = 0.003637 | 1.21
303.15 K, x2 = 0.001793, x1 = 0.003148 | 1.09
303.15 K, x2 = 0.001794, x1 = 0.002601 | 0.944
303.15 K, x2 = 0.001795, x1 = 0.002003 | 0.768
303.15 K, x2 = 0.001796, x1 = 0.001632 | 0.65
303.15 K, x2 = 0.001797, x1 = 0.0008258 | 0.377
303.15 K, x2 = 0.001797, x1 = 0.001246 | 0.521
308.15 K, x2 = 0.0008948, x1 = 0.005949 | 1.85
308.15 K, x2 = 0.0008949, x1 = 0.005837 | 1.83
308.15 K, x2 = 0.0008952, x1 = 0.005548 | 1.78
308.15 K, x2 = 0.0008955, x1 = 0.005217 | 1.71
308.15 K, x2 = 0.0008958, x1 = 0.004868 | 1.65
308.15 K, x2 = 0.0008961, x1 = 0.004505 | 1.57
308.15 K, x2 = 0.0008965, x1 = 0.004085 | 1.49
308.15 K, x2 = 0.0008969, x1 = 0.003621 | 1.36
308.15 K, x2 = 0.0008973, x1 = 0.003172 | 1.23
308.15 K, x2 = 0.0008978, x1 = 0.002614 | 1.06
308.15 K, x2 = 0.0008984, x1 = 0.001999 | 0.852
308.15 K, x2 = 0.0008987, x1 = 0.001608 | 0.718
308.15 K, x2 = 0.0008991, x1 = 0.001214 | 0.577
308.15 K, x2 = 0.0008996, x1 = 0.0007137 | 0.379
308.15 K, x2 = 0.001789, x1 = 0.005194 | 1.69
308.15 K, x2 = 0.001789, x1 = 0.005508 | 1.75
308.15 K, x2 = 0.00179, x1 = 0.004866 | 1.63
308.15 K, x2 = 0.001791, x1 = 0.004086 | 1.46
308.15 K, x2 = 0.001791, x1 = 0.004499 | 1.55
308.15 K, x2 = 0.001792, x1 = 0.003635 | 1.33
308.15 K, x2 = 0.001793, x1 = 0.003148 | 1.21
308.15 K, x2 = 0.001794, x1 = 0.002601 | 1.04
308.15 K, x2 = 0.001795, x1 = 0.002003 | 0.843
308.15 K, x2 = 0.001796, x1 = 0.00163 | 0.713
308.15 K, x2 = 0.001797, x1 = 0.0008258 | 0.415
308.15 K, x2 = 0.001797, x1 = 0.001246 | 0.576

CCCCCCCCCCCCOS(=O)(=O)[O-].[Na+] + CC(C)O + O
298 K, frequency 0.001 MHz
Details | electrical conductivity [S/m]
x2 = 0.04868, x3 = 0.9512 | 0.0308
x2 = 0.1358, x3 = 0.8641 | 0.0155
